According to patent US20040102454A1, “Phenylahistin and the phenylahistin analogs, a new class of anti-tumor compounds” (priority 1998, published 2004):
In brackets after ≈: the same amount, converted by molar mass. Entries after “also recorded” stand apart in the source; their conditions may differ.

Legend:
[1] = test system: A-549 cells derived from human lung cancer; test: Cell proliferation inhibition, MTT (Example 2); type: cell-based; settings: A549, read-out: IC50 (concentration that inhibited cell proliferation 50%), A-549, 48 hours
Method: Into each well of a 96-well microtiter plate, 100 μl of A-549 cells derived from human lung cancer prepared to 10^5 cells/ml in a culture medium obtained by adding 10% bovine fetus serum to EMEM culture medium (Nissui Seiyaku Co., Ltd.) having antitumor effect against A-549 cells derived from human lung cancer was placed. Methanol solution of racemic NSCL-96F037 obtained as in Example 1 was added to the wells of the uppermost row, specimens were diluted by the half-log dilution method and added, and the plate was incubated in a carbon dioxide gas incubator at 37° C. for 48 hours. The result was added in lots of 10 μl with MTT reagent (3-(4,5-dimethyl-2-thiazole)-2,5-diphenyl-2H-tetra bromide) (1 mg/ml•PBS), followed by incubation in a carbon dioxide gas incubator at 37° C. for 6 hours. The culture medium was discarded and the crystal of produced in the cells was dissolved in 100 μl/well of dimethylsulfoxide. Absorption of 595 nm light was then measured with a microplate reader.

A549 = test: HCC panel assay, sulforhodamine B; type: cell-based; settings: A549, Lung, (−)-PLH content 24.1%
Method: (§1) The antitumor activity of PLH was evaluated by the Human Cancer Cell Line Panel (HCC panel) assay, see Yamori T., Jap. J Cancer Chemother., (1997), 24, 129-35. This HCC panel consists of 38 tumor cell lines including 7 lung cancer, 6 stomach, 6 colon, 5 ovary, 6 central nerve system, 5 breast, 2 kidney and 1 melanoma cell lines. Each tumor cell was seeded in 96-well tissue culture plates and incubated overnight. Various concentrations (5 doses; final 10^−4, 10^−5, 10^−6, 10^−7 and 10^−8 M) of PLH were added, and the cells were incubated for 48 hours. […] All mice were obtained from Japan SLC (Shizuoka, Japan), P388 leukemia cells were obtained from Dainippon Pharmaceuticals Inc. (Osaka, Japan), Lewis Lung Carcinoma from Riken Cell Bank (Tsukuba, Japan), and Colon 26 cells from the National Cancer Center, Japan (Tokyo, Japan).

ACHN = test: HCC panel assay, sulforhodamine B; type: cell-based; settings: Renal, (−)-PLH content 24.1%
Method: as §1

HCC2998 = test: HCC panel assay, sulforhodamine B; type: cell-based; settings: HCC2998, Colon, (−)-PLH content 24.1%
Method: as §1

HCT-15 = test: HCC panel assay, sulforhodamine B; type: cell-based; settings: HCT-15, Colon, (−)-PLH content 24.1%
Method: as §1

LOX-IMVI = test: HCC panel assay, sulforhodamine B; type: cell-based; settings: Melanoma, (−)-PLH content 24.1%
Method: as §1

MDA-MB-231 = test: HCC panel assay, sulforhodamine B; type: cell-based; settings: MDA-MB-231, Breast, (−)-PLH content 24.1%
Method: as §1

MKN28 = test: HCC panel assay, sulforhodamine B; type: cell-based; settings: MKN28, Stomach, (−)-PLH content 24.1%
Method: as §1

MKN7 = test: HCC panel assay, sulforhodamine B; type: cell-based; settings: MKN7, Stomach, (−)-PLH content 24.1%
Method: as §1

NCI-H23 = test: HCC panel assay, sulforhodamine B; type: cell-based; settings: NCI-H23, Lung, (−)-PLH content 24.1%
Method: as §1

NCI-H460 = test: HCC panel assay, sulforhodamine B; type: cell-based; settings: NCI-H460, Lung, (−)-PLH content 24.1%
Method: as §1

NCI-H522 = test: HCC panel assay, sulforhodamine B; type: cell-based; settings: NCI-H522, Lung, (−)-PLH content 24.1%
Method: as §1

OVCAR-5 = test: HCC panel assay, sulforhodamine B; type: cell-based; settings: OVCAR-5, Ovary, (−)-PLH content 24.1%
Method: as §1

OVCAR-8 = test: HCC panel assay, sulforhodamine B; type: cell-based; settings: OVCAR-8, Ovary, (−)-PLH content 24.1%
Method: as §1

SK-OV-3 = test: HCC panel assay, sulforhodamine B; type: cell-based; settings: SK-OV-3, Ovary, (−)-PLH content 24.1%
Method: as §1

SNB-75 = test: HCC panel assay, sulforhodamine B; type: cell-based; settings: SNB-75, CNS, (−)-PLH content 24.1%
Method: as §1

bovine brain tubulin = test: [^3H]VLB binding competition assay; settings: DEAE-cellulose filter method; listed as (−)-PLH
[2] = Homo sapiens, read-out: GL50 (the source's name)
[3] = Homo sapiens, read-out: LC50 (the source's name)

**Q.** What does the source list for C=CC(C)(C)c1[nH]cnc1/C=C1\NC(=O)[C@H](Cc2ccccc2)NC1=O (racemic) [PLH, phenylahistin]?
**A.** IC50 [1]: 0.3 µg/mL (≈ 0.856 µM); TGI (A549): >100 µM; IC50 (A549; [2]): 0.97 µM; CC50 (A549; [3]): > 100 µM; IC50 (ACHN; [2]): 28 µM; CC50 (ACHN; [3]): > 100 µM; TGI (ACHN): >100 µM; TGI (HCC2998): 5.3 µM; IC50 (HCC2998; Homo sapiens, HCC 2998, read-out: GL50 (the source's name)): 1.1 µM; CC50 (HCC2998; Homo sapiens, HCC 2998, read-out: LC50 (the source's name)): > 100 µM; TGI (HCT-15): >100 µM; IC50 (HCT-15; [2]): 0.49 µM; CC50 (HCT-15; [3]): > 100 µM; IC50 (LOX-IMVI; [2]): 1.3 µM; CC50 (LOX-IMVI; [3]): > 100 µM; TGI (LOX-IMVI): >100 µM; IC50 (MDA-MB-231; [2]): 0.64 µM; CC50 (MDA-MB-231; [3]): > 100 µM; TGI (MDA-MB-231): 6 µM; IC50 (MKN28; Homo sapiens, MKN-28, read-out: GL50 (the source's name)): 0.42 µM; CC50 (MKN28; Homo sapiens, MKN-28, read-out: LC50 (the source's name)): > 100 µM; TGI (MKN28): >100 µM; IC50 (MKN7; Homo sapiens, MKN-7, read-out: GL50 (the source's name)): 0.39 µM; CC50 (MKN7; Homo sapiens, MKN-7, read-out: LC50 (the source's name)): > 100 µM; TGI (MKN7): >100 µM; IC50 (NCI-H23; [2]): 0.91 µM; CC50 (NCI-H23; [3]): > 100 µM; TGI (NCI-H23): 92 µM; IC50 (NCI-H460; [2]): 0.41 µM; CC50 (NCI-H460; [3]): > 100 µM; TGI (NCI-H460): >100 µM; IC50 (NCI-H522; [2]): 0.25 µM; CC50 (NCI-H522; [3]): > 100 µM; TGI (NCI-H522): 0.81 µM; IC50 (OVCAR-5; [2]): 1.2 µM; CC50 (OVCAR-5; [3]): > 100 µM; TGI (OVCAR-5): >100 µM; IC50 (OVCAR-8; [2]): 0.52 µM; CC50 (OVCAR-8; [3]): > 100 µM; TGI (OVCAR-8): 56 µM; IC50 (SK-OV-3; [2]): 0.37 µM; CC50 (SK-OV-3; [3]): > 100 µM; TGI (SK-OV-3): >100 µM; IC50 (SNB-75; [2]): 0.37 µM; CC50 (SNB-75; [3]): > 100 µM; TGI (SNB-75): >100 µM

**Q.** With C=CC(C)(C)c1[nH]cnc1/C=C1\NC(=O)[C@H](Cc2ccccc2)NC1=O [(−)-phenylahistin] as the molecule, how does the “effect on [^3H]VLB binding to tubulin” value (bovine brain tubulin) read?
**A.** Its value is “not inhibited; also recorded: slightly enhanced”.
